From the supplement of paper PMC10307832

Key:
Test in all cases: relative viability (nuclei count vs DMSO), 5 days (fraction); higher = more cells survive
PAC-1 + Luminespib = compound: C=CCc1cccc(/C=N/NC(=O)CN2CCN(Cc3ccccc3)CC2)c1O [PAC-1] + CCNC(=O)c1noc(-c2cc(C(C)C)c(O)cc2O)c1-c1ccc(CN2CCOCC2)cc1 [Luminespib] (partner 0.01 µM)
Method in brief: (§1)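 For relative viability, nuclei counts in treated wells were divided by those in vehicle wells. Lung cancer cell lines had been pin-tool dosed in 1536-well plates the day after seeding and cultured for 5 days, then fixed and stained in one step (final 0.05% Triton X-100, 1% formaldehyde, 1 ug/ml Hoechst) and imaged at 4×. Doses were one drug alone or a fixed anchor-drug dose plus five library-drug doses (not always all listed) in √10 steps, and values are duplicate-plate medians.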

BMX-IN-1 + Bortezomib = compound: C=CC(=O)Nc1cc(-n2c(=O)ccc3cnc4ccc(-c5ccc(NS(C)(=O)=O)cc5)cc4c32)ccc1C [BMX-IN-1] + CC(C)C[C@H](NC(=O)[C@H](Cc1ccccc1)NC(=O)c1cnccn1)B(O)O [Bortezomib] (partner 0.002 µM)
Method in brief: as §1

Ibrutinib + Pemetrexed = compound: C=CC(=O)N1CCC[C@@H](n2nc(-c3ccc(Oc4ccccc4)cc3)c3c(N)ncnc32)C1 [Ibrutinib] + Nc1nc2[nH]cc(CCc3ccc(C(=O)N[C@@H](CCC(=O)O)C(=O)O)cc3)c2c(=O)[nH]1 [Pemetrexed] (partner 0.2 µM)
Method in brief: as §1

BMX-IN-1 + Luminespib = compound: C=CC(=O)Nc1cc(-n2c(=O)ccc3cnc4ccc(-c5ccc(NS(C)(=O)=O)cc5)cc4c32)ccc1C [BMX-IN-1] + CCNC(=O)c1noc(-c2cc(C(C)C)c(O)cc2O)c1-c1ccc(CN2CCOCC2)cc1 [Luminespib] (partner 0.01 µM)
Method in brief: as §1

Cell Line | relative viability (PAC-1 + Luminespib; first compound 0.02 µM) | relative viability (PAC-1 + Luminespib; first compound 0.06325 µM) | relative viability (PAC-1 + Luminespib; first compound 0.2 µM) | relative viability (PAC-1 + Luminespib; first compound 2 µM) | relative viability (BMX-IN-1 + Bortezomib; first compound 0.02 µM) | relative viability (BMX-IN-1 + Bortezomib; first compound 0.2 µM) | relative viability (BMX-IN-1 + Bortezomib; first compound 0.6325 µM) | relative viability (BMX-IN-1 + Bortezomib; first compound 2 µM) | relative viability (Ibrutinib + Pemetrexed; first compound 0.005 µM) | relative viability (Ibrutinib + Pemetrexed; first compound 0.01581 µM) | relative viability (Ibrutinib + Pemetrexed; first compound 0.5 µM) | relative viability (BMX-IN-1 + Luminespib; first compound 0.02 µM) | relative viability (BMX-IN-1 + Luminespib; first compound 0.2 µM) | relative viability (BMX-IN-1 + Luminespib; first compound 0.6325 µM) | relative viability (BMX-IN-1 + Luminespib; first compound 2 µM) | relative viability (Ibrutinib + Pemetrexed; first compound 0.05 µM) | relative viability (Ibrutinib + Pemetrexed; first compound 0.1581 µM)
NCI-H2405 | 0.611 | 0.652 | 0.656 | 0.789 | 0.989 | 1.1 | 0.999 | 1.01 | 1.01 | 0.97 | 1.06 | 0.747 | 0.754 | 0.669 | 0.674 |  | 
EBC-1 |  |  |  |  | 0.574 | 0.581 | 0.626 | 0.598 |  |  |  |  |  |  |  |  | 
NCI-H1734 | 0.169 | 0.178 | 0.18 | 0.189 | 1.05 | 1.24 | 0.964 | 1.17 | 0.423 | 0.415 | 0.489 | 0.199 | 0.213 | 0.202 | 0.147 | 0.461 | 0.387
NCI-H2087 | 0.174 | 0.243 | 0.21 | 0.182 | 1.09 | 0.959 | 1.07 | 0.814 | 0.639 | 0.626 | 0.694 | 0.192 | 0.179 | 0.188 | 0.133 | 0.748 | 
NCI-H1563 | 0.49 | 0.542 | 0.505 | 0.511 | 0.896 | 0.925 | 0.891 | 0.79 | 0.623 | 0.812 | 0.657 | 0.549 | 0.461 | 0.523 | 0.521 | 0.741 | 0.706
SW 900 | 0.173 | 0.157 | 0.16 | 0.214 |  |  |  |  | 0.456 | 0.48 | 0.49 | 0.172 | 0.182 | 0.165 | 0.179 | 0.478 | 0.482
NCI-H1793 | 0.207 | 0.216 | 0.164 | 0.17 |  |  |  |  | 0.526 | 0.877 | 0.501 | 0.172 | 0.167 | 0.167 | 0.204 | 0.664 | 0.515
EKVX | 0.917 | 0.855 | 0.815 | 0.837 | 1.42 | 1.23 | 1.11 | 1.19 | 0.33 | 0.419 | 0.222 | 0.945 | 0.835 | 0.85 | 0.857 | 0.359 | 0.336
NCI-H2126 | 0.989 | 0.889 | 0.93 | 0.948 | 1.13 | 1.17 | 1.19 | 1.19 | 0.509 | 0.653 | 0.69 | 1 | 0.974 | 1.17 | 0.909 | 0.717 | 0.671
NCI-H1993 | 0.951 | 0.861 | 0.399 | 0.789 | 1.1 | 1.11 |  | 0.959 | 0.444 | 0.58 | 0.597 | 0.854 | 0.805 | 0.829 | 0.737 | 0.609 | 0.567
EPLC-272H | 0.296 | 0.262 | 0.202 | 0.277 | 1.28 | 1.09 | 0.872 | 0.887 | 0.317 | 0.325 | 0.344 | 0.208 | 0.223 | 0.242 | 0.247 | 0.412 | 0.268
LU99A | 0.304 | 0.229 | 0.266 | 0.217 | 1.2 | 1.18 | 1.2 | 1.12 | 0.217 | 0.211 | 0.412 | 0.216 | 0.181 | 0.227 | 0.258 | 0.205 | 0.206
NCI-H1299 |  |  |  |  | 0.968 | 1.08 | 1.13 | 0.97 |  |  |  |  |  |  |  |  | 
HCC-78 |  |  |  |  | 0.534 | 0.474 | 0.432 | 0.546 |  | 0.84 | 0.93 |  |  |  |  | 0.892 | 0.879
HCC-15 | 0.447 | 0.37 | 0.355 | 0.279 | 1.25 | 1.06 | 1.24 | 1.1 | 0.238 | 0.223 | 0.322 | 0.571 | 0.363 | 0.297 | 0.369 | 0.238 | 0.235
201T | 1.03 | 1.05 | 1.09 | 1.04 | 1.13 | 1.07 | 1.12 | 1.1 | 0.296 | 0.301 | 0.507 | 1.07 | 1.1 | 1.09 | 0.98 | 0.363 | 0.363
LCLC-103H | 1.06 | 0.932 | 0.981 | 0.911 | 1.11 | 0.972 | 1.25 | 0.932 | 0.43 | 0.467 | 0.544 | 1.1 | 0.933 | 0.956 | 0.882 | 0.467 | 0.464
RERF-LC-KJ | 1.22 | 1.2 | 1.16 | 1.06 | 1.17 | 1.21 | 1.09 | 1.05 | 0.462 | 0.455 | 0.569 | 1.3 | 1.55 | 1.27 | 1.49 | 0.512 | 0.433
